The compounds below were run against T1, recombinant human KLK5 (Homo sapiens, UniProt Q9Y337) (assay: Kallikrein (KLK) 5 enzymatic assay (Boc-VPR-AMC fluorogenic substrate)). Details: recombinant human KLK5 0.1 μg/well, Boc-VPR-AMC 100 μM, pH 7.5, room temperature, 1% DMSO; tested a minimum of three times.
T1 construct: purchased Novoprotein or R&D Systems C415 or 1108-SE
T1 sequence (Q9Y337 23-293): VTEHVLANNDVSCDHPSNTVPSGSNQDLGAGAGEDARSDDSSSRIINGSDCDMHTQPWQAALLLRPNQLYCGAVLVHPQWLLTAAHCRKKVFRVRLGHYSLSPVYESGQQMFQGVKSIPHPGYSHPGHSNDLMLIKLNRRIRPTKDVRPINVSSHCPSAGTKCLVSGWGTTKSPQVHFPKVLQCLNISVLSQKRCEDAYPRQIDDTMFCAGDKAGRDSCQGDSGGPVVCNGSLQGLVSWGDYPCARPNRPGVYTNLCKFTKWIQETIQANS
Assay type: biochemical
Method in brief: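 Fluorogenic rate assay at pH 7.5 (0.1 M NaH2PO4, 1% DMSO, room temperature), run at least three times per compound. Compound was premixed with 0.1 μg/well recombinant human KLK5 before adding 100 μM Boc-VPR-AMC; AMC release was read at ex 380/em 460 nm, and IC50 derived from inhibition of rate vs DMSO control.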

IC50, 1000 to 10000 nM:
N#Cc1cccc(O[C@@H]2CCc3ccc(-c4ccc5ccnc(N)c5c4)cc32)c1CC(=O)O [Compound 432c, (R)-2-(2-((6-(1-aminoisoquinolin-7-yl)-2,3-dihydro-1H-inden-1-yl)oxy)-6-cyanophenyl)acetic acid]
COc1c(-c2ccc3c(c2)c(COc2ccccc2CC(=O)O)nn3C2CCC2)ccnc1CN [Compound 328d, 2-(2-((5-(2-(aminomethyl)-3-methoxypyridin-4-yl)-1-cyclobutyl-1H-indazol-3-yl)methoxy)phenyl)acetic acid]
Nc1nccc2c(-c3ccc4c(c3)[C@@H](Oc3ccccc3CC(=O)O)CC4)cccc12 [Compound 222b, (S)-2-(2-((6-(1-aminoisoquinolin-5-yl)-2,3-dihydro-1H-inden-1-yl)oxy)phenyl)acetic acid]
Nc1nccc2ccc(-c3ccc4nn(C5CCOC5)c(COc5ccccc5CC(=O)O)c4c3)cc12 (centres unmarked) [Compound 109b, 2-(2-((5-(1-aminoisoquinolin-7-yl)-2-(tetrahydrofuran-3-yl)-2H-indazol-3-yl)methoxy)phenyl)acetic acid]
Cc1cc(-c2ccc3ccnc(N)c3c2)cc2c(COc3ccccc3CC(=O)O)coc12 [Compound 233f, 2-(2-((5-(1-aminoisoquinolin-7-yl)-7-methylbenzofuran-3-yl)methoxy)phenyl)acetic acid]

IC50, > 10000 nM:
CC(C)n1nc(C(=O)Nc2ccccc2C(=O)O)c2cc(-c3ccc(C(=N)N)cc3)ccc21 [Compound 3b, 2-(5-(4-carbamimidoylphenyl)-1-isopropyl-1H-indazole-3-carboxamido)benzoic acid]
CC(C)n1nc(COc2ccccc2CC(=O)O)c2cc(-c3cccc4c(N)nn(C)c34)ccc21 [Compound 54c, 2-(2-((3′-amino-1-isopropyl-1′-methyl-1H, 1′H-[5,7′-biindazol]-3-yl)methoxy)phenyl)acetic acid]
CC(C)n1nc(COc2ccccc2CC(=O)O)c2cc(-c3ccc4cccc(N)c4c3)ccc21 [Compound 70c, 2-(2-((5-(8-aminonaphthalen-2-yl)-1-isopropyl-1H-indazol-3-yl)methoxy)phenyl)acetic acid]
CC(C)n1nc(COc2ccccc2CC(=O)O)c2cc(-c3ccc4c(c3)C(N)CO4)ccc21 (centres unmarked) [Compound 76c, 2-(2-((5-(3-amino-2,3-dihydrobenzofuran-5-yl)-1-isopropyl-1H-indazol-3-yl)methoxy)phenyl)acetic acid]
Cn1c(=O)n(Cc2ccccc2CC(=O)O)c2cc(-c3ccc4ccnc(N)c4c3)ccc21 [Compound 217e, 2-(2-((6-(1-aminoisoquinolin-7-yl)-3-methyl-2-oxo-2,3-dihydro-1H-benzo[d]imidazol-1-yl)methyl)phenyl)acetic acid]
CC(C)n1nc(COc2ccccc2CC(=O)O)c2cc(-c3ccc4c(c3)C(O)CC4)ccc21 (centres unmarked) [Compound 77c, 2-(2-((5-(3-hydroxy-2,3-dihydro-1H-inden-5-yl)-1-isopropyl-1H-indazol-3-yl)methoxy)phenyl)acetic acid]
COc1cc(-c2ccc3ccnc(N)c3c2)cc2c(COc3c(C)cccc3CC(=O)O)coc12 [Compound 237c, 2-(2-((5-(1-aminoisoquinolin-7-yl)-7-methoxybenzofuran-3-yl)methoxy)-3-methylphenyl)acetic acid]

IC50, < 1000 nM:
N=C(N)c1cccc(-c2ccc3c(c2)c(COc2ccccc2CC(=O)O)nn3-c2ccccc2)c1 [Compound 203c, 2-(2-((5-(3-carbamimidoylphenyl)-1-phenyl-1H-indazol-3-yl)methoxy)phenyl)acetic acid]
CC(C)n1nc(COc2ccccc2CC(=O)O)c2cc(-c3cccc(C(=N)N)c3F)ccc21 [Compound 64d, 2-(2-((5-(3-carbamimidoyl-2-fluorophenyl)-1-isopropyl-1H-indazol-3-yl)methoxy)phenyl)acetic acid]
COc1c(-c2ccc3c(c2)c(COc2ccccc2CC(=O)O)nn3C2CCCC2)ccnc1CN [Compound 327d, 2-(2-((5-(2-(aminomethyl)-3-methoxypyridin-4-yl)-1-cyclopentyl-1H-indazol-3-yl)methoxy)phenyl)acetic acid]
Nc1nccc2c(-c3ccc4c(c3)c(COc3ccccc3CC(=O)O)nn4CC3CNC3)cccc12 [Compound 296b, 2-(2-((5-(1-aminoisoquinolin-5-yl)-1-(azetidin-3-ylmethyl)-1H-indazol-3-yl)methoxy)phenyl)acetic acid]
Nc1nccc2c(-c3ccc4c(c3)C(Oc3cc(F)ccc3CC(=O)O)CC43CCCC3)cccc12 (centres unmarked) [Compound 442c, 2-(2-((5′-(1-aminoisoquinolin-5-yl)-2′,3′-dihydrospiro[cyclopentane-1,1′-inden]-3′-yl)oxy)-4-fluorophenyl)acetic acid]
Cc1ccc(CC(=O)O)c(O[C@@H]2CCc3ccc(-c4ccc5ccnc(N)c5c4)cc32)c1 [Compound 425c, (R)-2-(2-((6-(1-aminoisoquinolin-7-yl)-2,3-dihydro-1H-inden-1-yl)oxy)-4-methylphenyl)acetic acid]
Nc1nccc2ccc(-c3ccc4c(c3)c(COc3ccccc3CC(=O)O)nn4C3CCCCC3)cc12 [Compound 48d, 2-(2-((5-(1-aminoisoquinolin-7-yl)-1-cyclohexyl-1H-indazol-3-yl)methoxy)phenyl)acetic acid]
Nc1nccc2c(-c3ccc4c(c3)c(COc3cc(F)ccc3CC(=O)O)nn4C3CCC3)cccc12 [Compound 168c, 2-(2-((5-(1-aminoisoquinolin-5-yl)-1-cyclobutyl-1H-indazol-3-yl)methoxy)-4-fluorophenyl)acetic acid]
CC(C)(C)OC(=O)N1CC(n2nc3ccc(-c4cccc5c(N)nccc45)cc3c2COc2ccccc2CC(=O)O)C1 [Compound 125b, 2-(2-((5-(1-aminoisoquinolin-5-yl)-2-(1-(tert-butoxycarbonyl)azetidin-3-yl)-2H-indazol-3-yl)methoxy)phenyl)acetic acid]
CC(C)(C)OC(=O)N1CCC2(CC1)C[C@H](Oc1ccccc1CC(=O)O)c1cc(-c3cccc4c(N)nccc34)ccc12 [Compound 392f, (S)-2-(2-((5-(1-aminoisoquinolin-5-yl)-1′-(tert-butoxycarbonyl)-2,3-dihydrospiro[indene-1,4′-piperidin]-3-yl)oxy)phenyl)acetic acid]
Nc1nccc2c(-c3ccc4c(c3)c(COc3ccc(F)cc3CC(=O)O)nn4C3CCC3)cccc12 [Compound 167b, 2-(2-((5-(1-aminoisoquinolin-5-yl)-1-cyclobutyl-1H-indazol-3-yl)methoxy)-5-fluorophenyl)acetic acid]
CC(C)CCN1CC(Cn2nc(COc3ccccc3CC(=O)O)c3cc(-c4ccc5ccnc(N)c5c4)ccc32)C1 [Compound 307c, 2-(2-((5-(1-aminoisoquinolin-7-yl)-1-((1-isopentylazetidin-3-yl)methyl)-1H-indazol-3-yl)methoxy)phenyl)acetic acid]
COc1ccc(CC(=O)O)c(OCc2nn(C3CC3)c3ccc(-c4ccc5ccnc(N)c5c4)cc23)c1 [Compound 66e, 2-(2-((5-(1-aminoisoquinolin-7-yl)-1-cyclopropyl-1H-indazol-3-yl)methoxy)-4-methoxyphenyl)acetic acid]
Cn1nc(COc2ccccc2CC(=O)O)c2cc(-c3cccc4c(N)nccc34)ccc21 [Compound 58b, 2-(2-((5-(1-aminoisoquinolin-5-yl)-1-methyl-1H-indazol-3-yl)methoxy)phenyl)acetic acid]
COC(=O)N1CCC2(CC1)C[C@H](Oc1ccccc1CC(=O)O)c1cc(-c3cccc4c(N)nccc34)ccc12 [Compound 396d, (S)-2-(2-((5-(1-aminoisoquinolin-5-yl)-1′-(methoxycarbonyl)-2,3-dihydrospiro[indene-1,4′-piperidin]-3-yl)oxy)phenyl)acetic acid]
N#Cc1cc(-c2cccc3c(N)nccc23)cc2c(COc3ccccc3CC(=O)O)nn(C3CCCCO3)c12 (centres unmarked) [Compound 108c, 2-(2-((5-(1-aminoisoquinolin-5-yl)-7-cyano-1-(tetrahydro-2H-pyran-2-yl)-1H-indazol-3-yl)methoxy)phenyl)acetic acid]
CCOC(=O)Cc1ccccc1OCc1nn(CCF)c2ccc(Br)cc12 [Compound 182c, ethyl 2-(2-((5-bromo-1-(2-fluoroethyl)-1H-indazol-3-yl)methoxy)phenyl)acetate]
CC(C)(C)OC(=O)N1CC(Cn2nc(COc3ccccc3CC(=O)O)c3cc(-c4ccc5ccnc(N)c5c4)ccc32)C1 [Compound 194g, 2-(2-((5-(1-aminoisoquinolin-7-yl)-1-((1-(tert-butoxycarbonyl)azetidin-3-yl)methyl)-1H-indazol-3-yl)methoxy)phenyl)acetic acid]
Cc1cccc(OC2CC3(CCN(C(=O)OC(C)C)CC3)c3ccc(-c4cccc5c(N)nccc45)cc32)c1CC(=O)O (centres unmarked) [Compound 384b, 2-(2-((5-(1-aminoisoquinolin-5-yl)-1′-(isopropoxycarbonyl)-2,3-dihydrospiro[indene-1,4′-piperidin]-3-yl)oxy)-6-methylphenyl)acetic acid]
CCOC(=O)N1CCC2(CC1)CC(Oc1ccccc1CC(=O)O)c1cc(-c3ccc4ccnc(N)c4c3)ccc12 (centres unmarked) [Compound 349d, 2-(2-((5-(1-aminoisoquinolin-7-yl)-1′-(ethoxycarbonyl)-2,3-dihydrospiro[indene-1,4′-piperidin]-3-yl)oxy)phenyl)acetic acid]
